# In article PMC3064985 (Bioorganic & medicinal chemistry, 2010):
# Assays:
# [1] = system: cultured L6 rat myoblast cells; test: Cytotoxicity, Alamar Blue assay; format: cell-based; details: read-out: Cytotoxicity IC50
# [2] = system: Plasmodium falciparum K1; test: In vitro activity against P. falciparum; format: cell-based; details: read-out: P. falciparum IC50; strain K1; average of duplicate determination
# [3] = system: T. b. rhodesiense STIB900; test: STIB900 acute mouse model of trypanosomiasis; format: in vivo; details: 5 mg/kg ip, 4 consecutive days
# [4] = system: Poly d(A-T)n; test: Thermal melting; format: binding; details: for Increase in ΔTm on replacing one furan ring with thiophene: compared with bifuran 1c
Molecule,Survival (average days of survival) [3] [days],Increase in ΔTm on replacing one furan ring with thiophene [4],also measured
"6-(5′-Amidino-2,2′-bifuran-5-yl)-nicotinamidine acetate [Compound 1h]",25.5,–,"IC50 [1]: 26.9 µM; IC50 [2]: 0.0064 µM; Cures (mice that survive and are parasite free for 60 days) ([3]; groups of four mice): 0/4; ΔTm, increase in thermal melting of Poly d(A-T)n ([4]; ratio 0.3 mol compound per mole DNA, CAC 10 buffer pH 7.0): 6.0 °C"
"Cl.N=C(N)c1ccc(-c2ccc(-c3ccc(C(=N)N)s3)o2)cc1 [Compound 1d, 5-[5-(4-Amidinophenyl)-furan-2-yl]-thiophene-2-carboxamidine hydrochloride]",–,approximately 5 °C,–
"Cl.N=C(N)c1ccc(-c2ccc(-c3ccc(C(=N)N)s3)s2)cc1 [Compound 1e, 5′-(4-Amidinophenyl)-2,2′-bithiophene-5-carboxamidine hydrochloride]",26.25,–,–
"Cl.N=C(N)c1ccc(-c2ccc(-c3ccc(C(=N)N)o3)s2)cc1 [Compound 1f, 5-[5-(4-Amidinophenyl)-thiophen-2-yl]-furan-2-carboxamidine hydrochloride]",–,approximately 5 °C,–
